Measured values reported in ChEMBL document CHEMBL4828775, “Antimicrobial and Cytotoxic Angucyclic Quinones from Actinomadura miaoliensis” (J Nat Prod, 2021).
≈ marks a conversion by molar mass, not a printed value.

Tests used:
Staphylococcus aureus = experiment: Antibacterial activity against Staphylococcus aureus assessed as inhibition of bacterial growth by CLSI based microdilution method; format: functional
Alternaria brassicicola = experiment: Antifungal activity against Alternaria brassicicola assessed as inhibition of fungal growth by CLSI based microdilution method; format: functional
Curvularia lunata = experiment: Antifungal activity against Curvularia lunata assessed as inhibition of fungal growth by CLSI based microdilution method; format: functional
MCF7 = experiment: Cytotoxicity against human MCF7 cells assessed as reduction in cell viability by resazurin microplate assay; format: functional, cell-based
NCI-H187 = experiment: Cytotoxicity against human NCI-H187 cells assessed as reduction in cell viability by resazurin microplate assay; format: functional, cell-based
Vero = experiment: Cytotoxicity against African green monkey Vero cells assessed as reduction in cell viability by resazurin microplate assay; format: cell-based; conditions: Chlorocebus sabaeus
Plasmodium falciparum = experiment: Antimalarial activity against Plasmodium falciparum K1 assessed as inhibition of parasite growth by microculture radioisotope technique; format: functional, organism-based
Acinetobacter baumannii = experiment: Antibacterial activity against Acinetobacter baumannii assessed as inhibition of bacterial growth by CLSI based microdilution method; format: functional
[1] = tested on: Mycobacterium tuberculosis; experiment: Antitubercular activity against Mycobacterium tuberculosis H37Ra assessed as inhibition of bacterial growth by green fluorescent protein based method; format: functional

Structure (SMILES)	MIC (Staphylococcus aureus) [µM]	MIC (Alternaria brassicicola) [µM]	MIC (Curvularia lunata) [µM]	IC50 (MCF7) [µM]	IC50 (NCI-H187) [µM]	IC50 (Vero) [µM]	IC50 (Plasmodium falciparum) [µM]	MIC (Acinetobacter baumannii) [µM]	MIC [1] [µM]
CN[C@H](CC(C)C)C(=O)N[C@H]1C(=O)N[C@@H](CC(N)=O)C(=O)N[C@H]2C(=O)N[C@H]3C(=O)N[C@H](C(=O)N[C@H](C(=O)O)c4cc(O)cc(O)c4-c4cc3ccc4O)[C@H](O)c3ccc(c(Cl)c3)Oc3cc2cc(c3O[C@@H]2O[C@H](CO)[C@@H](O)[C@H](O)[C@H]2O[C@H]2C[C@](C)(N)[C@H](O)[C@H](C)O2)Oc2ccc(cc2Cl)[C@H]1O [VANCOMYCIN]	0.3 (≈ 0.435 µg/mL)	–	–	–	–	–	–	–	–
C[C@@H]1[C@H](O)[C@@H](C)/C=C/C=C/C=C/C=C/C=C/C=C/C=C/[C@H](O[C@@H]2O[C@H](C)[C@@H](O)[C@H](N)[C@@H]2O)C[C@@H]2O[C@](O)(C[C@@H](O)C[C@@H](O)[C@H](O)CC[C@@H](O)C[C@@H](O)CC(=O)O[C@H]1C)C[C@H](O)[C@H]2C(=O)O [AMPHOTERICIN B]	–	0.8 (≈ 0.739 µg/mL)	1.7 (≈ 1.57 µg/mL)	–	–	–	–	–	–
CC1=CC(=O)[C@@H]2[C@H]3[C@H](CC[C@]2(O)C1)C(=O)c1c(O)cccc1[C@@H]3O	> 150	> 150	> 150	> 150	> 150	147	28.3	> 150	9.5 (≈ 3.12 µg/mL)
NNC(=O)c1ccncc1 [ISONIAZID]	–	–	–	–	–	–	–	–	0.5 (≈ 0.0686 µg/mL)
Cc1c2ccncc2c(C)c2c1[nH]c1ccccc12 [ELLIPTECINE]	–	–	–	–	13.7	4.5	–	–	–
Cc1ccc2c3c(ccc2c1)C(=O)c1c(O)cccc1C3=O	> 150	> 150	> 150	55.3	83.3	35.4	> 35	> 150	10.9 (≈ 3.14 µg/mL)
CC1=C[C@@H](O)[C@H]2[C@](O)(CC[C@]3(O)C(=O)c4c(O)cccc4[C@H](O)[C@@]23O)C1	> 138	> 138	> 138	> 138	> 138	> 138	> 28	> 138	138 (≈ 50 µg/mL)
C[C@H]1[C@@H](O)O[C@@H]2O[C@@]3(C)CC[C@H]4[C@H](C)CC[C@@H]1[C@@]24OO3 [ARTENIMOL]	–	–	–	–	–	–	0.002	–	–
CC1=CC(=O)[C@@H]2C3=C(CC[C@]2(O)C1)C(=O)c1c(O)cccc1C3=O	> 150	> 150	> 150	2.2	2.2	1.8	2.2	> 150	0.6 (≈ 0.195 µg/mL)
Cc1cc(O)c2c3c(ccc2c1)C(=O)c1c(O)cccc1C3=O [TETRANGULOL]	> 150	> 150	> 150	18	17.1	4.4	5.9	> 150	2.6 (≈ 0.791 µg/mL)
CC[C@H]1OC(=O)[C@H](C)[C@@H](O[C@H]2C[C@@](C)(OC)[C@@H](O)[C@H](C)O2)[C@H](C)[C@@H](O[C@@H]2O[C@H](C)C[C@H](N(C)C)[C@H]2O)[C@](C)(O)C[C@@H](C)C(=O)[C@H](C)[C@@H](O)[C@]1(C)O [ERYTHROMYCIN]	–	–	–	–	–	–	–	8.5 (≈ 6.24 µg/mL)	–
Cc1cc(O)c2c(c1)CCC1=C2C(=O)c2cccc(O)c2C1=O	> 150	> 150	> 150	1.1	3	1.4	2.6	> 150	0.3 (≈ 0.0919 µg/mL)
CO[C@H]1/C=C/O[C@@]2(C)Oc3c(C)c(O)c4c(O)c(c(/C=N/N5CCN(C)CC5)c(O)c4c3C2=O)NC(=O)/C(C)=C\C=C\[C@H](C)[C@H](O)[C@@H](C)[C@@H](O)[C@@H](C)[C@H](OC(C)=O)[C@@H]1C [RIFAMPIN]	1.9 (≈ 1.56 µg/mL)	–	–	–	–	–	–	3.8 (≈ 3.13 µg/mL)	0.006 (≈ 0.00494 µg/mL)
CC1=C[C@@H](O)[C@@H]2C3=C(CC[C@]2(O)C1)C(=O)c1c(O)cccc1C3=O	> 150	> 150	> 150	3.4	2.3	1.1	2.5	> 150	2.4 (≈ 0.783 µg/mL)
CC1=C[C@@H]2O[C@]34CC[C@](O)(C1)[C@H]2[C@]3(O)[C@@H](O)c1cccc(O)c1C4=O	> 145	> 145	> 145	> 145	> 145	> 145	> 28	> 145	145 (≈ 50 µg/mL)
